{"source": "patent US11542295B2", "about": "“Use of 20-hydroxyecdysone and the derivatives thereof in the treatment of myopathies” (BIOPHYTIS, priority 2017, dated 2023)", "origin": "cited, not measured here", "key": {"[1]": {"tested_on": "muscles of rats", "conditions": "rats in vivo; cited from earlier work"}, "[2]": {"tested_on": "C2C12 mouse myotubes", "conditions": "C2C12 mouse myotubes in vitro; cited from earlier work"}, "[3]": {"tested_on": "young athletes", "conditions": "young athletes (Simakin et al., 1988); cited from earlier work"}}, "data": [{"compound": "CC(C)(O)CC[C@@H](O)[C@](C)(O)[C@H]1CC[C@@]2(O)C3=CC(=O)[C@@H]4C[C@@H](O)[C@@H](O)C[C@]4(C)[C@H]3CC[C@]12C", "note": "[20-hydroxyecdysone]", "values": [{"measurement": "effects on protein syntheses in muscles", "setting": "[1]", "value": "stimulant effects"}, {"measurement": "effects on protein syntheses", "setting": "[2]", "value": "stimulant effects"}, {"measurement": "muscle mass", "setting": "[3]", "value": "increases"}]}]}
